Data from US11401277B2, “Anti-bacterial heterocyclic compounds and their synthesis” (Bugworks Research, Inc., priority 2017, dated 2022).
≈ marks a conversion by molar mass, not a printed value. Where two headings read alike, the source gives them in different places.

Assays:
[1] = tested on: E. cloacae clinical strains; assay: Susceptibility (MIC50 and MIC90 determination) studies, clinical strains; format: cell-based; settings: CLSI
[2] = tested on: clinical strains of five Gram-negative bacterial species; assay: Antibacterial susceptibility studies, overall statement; format: cell-based; settings: range over 5 Gram-negative species
Source text: The standard drugs ciprofloxacin and meropenem were used as positive controls in the study.

[3] = IV Formulation solubility; format: physicochemical; settings: 10% L-ascorbic acid in MilliQ water, 37 °C, pH 2.8, aqueous with cosolvent or surfactant or cyclodextrin, thermodynamic from solid, 1N NaOH for pH adjustment, read-out: Solubility in 10% L-ascorbic acid in fresh MilliQ water(v/v), Final pH~2.8
Experimental: Procedure: Weighed appropriate amount of the Compound 2 to be tested and dissolved in 1 ml of the 10% ascorbic acid solution. (Vortex for a few seconds if the compound doesn't dissolve instantly). Sonicated the compound solution at 37° C. for 5 minutes using a bath sonicator to obtain a visually clear solution. […]

[4] = In vivo pharmacokinetic (PK) studies in rats; parameters: species or system Sprague-Dawley (SD) rats; settings: for Cmax / Vd / bioavailability / AUC(0-inf) / AUC(0-t) / Tmax / half-life / clearance: Sprague-Dawley, rat, plasma; for Vd: iv; for bioavailability: po, read-out: Bioavailability* (F, %); for clearance: read-out: CLp (converted)

Work on Cn1c(=O)ccc2ccc(F)c(OCCNC[C@H]3CN(c4cnc5c(n4)NC(=O)CO5)C(=O)O3)c21 [Compound 2, (S)-6-(5-(((2-((7-fluoro-1-methyl-2-oxo-1,2-dihydroquinolin-8-yl)oxy)ethyl)amino)methyl)-2-oxooxazolidin-3-yl)-2H-pyrazino[2,3-b][1,4]oxazin-3(4H)-one] yielded a Minimum (MIC) ([1]; MIC50/MIC90 in μg/ml) of 0.03 µg/mL, an MIC50 ([1]; Enterobacter cloacae) of 0.125 µg/mL (≈ 0.258 µM) and an MIC90 ([1]; Enterobacter cloacae) of 0.25 µg/mL (≈ 0.516 µM). The MIC90 [2] was 0.25 to 1 µg/mL (≈ 0.516 to 2.06 µM), the solubility at 5 min [3] was 15 mg/mL (≈ 31000 µM) and the “AUC and Cmax versus dose (in words)” value ([4]; IV infusion and Oral dosing at 5, 10, 30 & 100 mg/kg doses in SD rats) was “Dose proportional increase”. The “clearance (in words)” value ([4]; SD rats) was “moderate”, the “half life (in words)” value ([4]; SD rats) was “moderate” and the “oral bioavailability (in words)” value ([4]; SD rats) was “good”. For the same compound, the “volume of distribution (in words)” value ([4]; SD rats) was “low”, the Cmax ([4]; 5 mg/kg, IV (1 h infusion), male SD rats) was 2800 ± 970 ng/mL and the Cmax ([4]; 10 mg/kg PO, male SD rats) was 2580 ± 75 ng/mL. It also gave a Cmax ([4]; 30 mg/kg, IV (1 h infusion), male SD rats) of 25200 ± 610 ng/mL, a Cmax ([4]; 100 mg/kg, IV (1 h infusion), male SD rats) of 93400 ± 4400 ng/mL and a Cmax ([4]; 150 mg/kg, IV (1 h infusion), male SD rats) of 112000 ± 7580 ng/mL. For the same compound, the Vd ([4]; male, 5 mg/kg, IV, read-out: Vd) was 6.4 ± 1.07 L/kg, the Vd ([4]; male, 5 mg/kg, IV, read-out: Vss) was 1.09 ± 0.13 L/kg and the Vd ([4]; male, 30 mg/kg, IV, read-out: Vd) was 4.94 ± 1.8 L/kg. The Vd ([4]; male, 30 mg/kg, IV, read-out: Vss) was 0.62 ± 0.05 L/kg, the Vd ([4]; male, 100 mg/kg, IV, read-out: Vd) was 5.57 ± 0.56 L/kg and the Vd ([4]; male, 100 mg/kg, IV, read-out: Vss) was 0.69 ± 0.02 L/kg. It also gave a Vd ([4]; male, 150 mg/kg, IV, read-out: Vd) of 5.38 ± 1.1 L/kg, a Vd ([4]; male, 150 mg/kg, IV, read-out: Vss) of 0.73 ± 0.07 L/kg and a bioavailability ([4]; male, 10 mg/kg) of 33.3 ± 3.1%. The bioavailability ([4]; male, 30 mg/kg) was 66.8 ± 14.4%, the bioavailability ([4]; male, 100 mg/kg) was 38.4 ± 12.4% and the bioavailability ([4]; male, 300 mg/kg) was 24.2 ± 15.6%. For the same compound, the AUC(0-inf) ([4]; male, 5 mg/kg, IV) was 1870 ± 350 ng·h/mL, the AUC(0-t) ([4]; male, 5 mg/kg, IV) was 1870 ± 350 ng·h/mL and the Tmax ([4]; male, 5 mg/kg, IV) was 0.76 ± 0.02 h. The half-life ([4]; male, 5 mg/kg, IV) was 1.53 ± 0.07 h, the clearance ([4]; male, 5 mg/kg, IV) was 45.7 mL/min/kg and the AUC(0-inf) ([4]; male, 10 mg/kg PO) was 1240 ± 100 ng·h/mL. For the same compound, the Tmax ([4]; male, 10 mg/kg PO) was 0.25 h, the half-life ([4]; male, 10 mg/kg PO) was 1.84 ± 0.15 h and the AUC(0-inf) ([4]; male, 30 mg/kg, IV) was 21800 ± 150 ng·h/mL. For the same compound, the AUC(0-t) ([4]; male, 30 mg/kg, IV) was 21780 ± 150 ng·h/mL, the Tmax ([4]; male, 30 mg/kg, IV) was 1 h and the half-life ([4]; male, 30 mg/kg, IV) was 2.45 ± 0.78 h. It also gave a clearance ([4]; male, 30 mg/kg, IV) of 23 mL/min/kg, an AUC(0-inf) ([4]; male, 30 mg/kg, PO) of 7540 ± 1620 ng·h/mL and a Cmax ([4]; male, 30 mg/kg, PO) of 8500 ± 2400 ng/mL. It also gave a Tmax ([4]; male, 30 mg/kg, PO) of 0.5 h, a half-life ([4]; male, 30 mg/kg, PO) of 1.7 ± 0.5 h and an AUC(0-inf) ([4]; male, 100 mg/kg, IV) of 118000 ± 13600 ng·h/mL. For the same compound, the AUC(0-t) ([4]; male, 100 mg/kg, IV) was 118000 ± 13600 ng·h/mL, the Tmax ([4]; male, 100 mg/kg, IV) was 1 h and the half-life ([4]; male, 100 mg/kg, IV) was 4.53 ± 0.12 h. For the same compound, the clearance ([4]; male, 100 mg/kg, IV) was 14.2 mL/min/kg, the AUC(0-inf) ([4]; male, 100 mg/kg, PO) was 14400 ± 4600 ng·h/mL and the Cmax ([4]; male, 100 mg/kg, PO) was 9790 ± 1100 ng/mL. It also gave a Tmax ([4]; male, 100 mg/kg, PO) of 0.33 ± 0.14 h and a half-life ([4]; male, 100 mg/kg, PO) of 5.32 ± 2.1 h.
